Test results published in US5573999A, “β-substituted cinnamic acid derivative” (BASF Aktiengesellschaft, priority 1991, dated 1996).

Key:
[1] = test system: mitochondrial respiration; assay: Inhibition of mitochondrial respiration (rate of reduction of cytochrome c in isolated mitochondria), yeast; assay type: biochemical, Saccharomyces cerevisiae; settings: DMSO control
Text: In order to determine the effect of the compounds according to the invention on mitochondrial respiration it is first necessary to isolate the mitochondria from the organisms being investigated. For this, in the case of the yeast Saccharomyces cerevisiae, the cells in a 30 to 40% strength suspension of the yeast in an aqueous solution of 0.6M mannitol+0.01M tris[hydroxymethyl]-aminomethane+0.002M disodium ethylenediaminetetraacetate (pH 6.8) are disrupted in a glass bead mill, and the extract is fractionated by differential centrifugation at 1000× g and 12000× g. The mitochondria are in the pellet from the 12000× g centrifugation.
(§1) Used as control is a mixture with the equivalent amount of pure DMSO. The inhibition at the concentration of agent in each case is then calculated as follows [formula] where ΔE is the change in extinction, at is the change in time, [formula] is the reaction rate for the control and [formula] is the reaction rate for the sample x.
(§2) The inhibition was determined in each case at a test substance concentration of 1.8/10^-5mol/l .

[2] = test system: mitochondrial respiration; assay: Inhibition of mitochondrial respiration (rate of reduction of cytochrome c in isolated mitochondria), house fly; assay type: biochemical, Musca domestica; settings: DMSO control
Text: (§3) It is also possible similarly to isolate mitochondria from other organisms, e.g. from the phytopathogenic fungus Drechslera sorokiniana (synonym: Helminthosporium sativum), from the dermatophyte Trichophyton mentagrophytes, which is a human pathogen, and, for example, from the house fly (Musca domestica) as insect or from the spider mite Tetranychus urticae.
as §1, §2

[3] = test system: wheat mildew (Erysiphe graminis var. tritici); assay: Activity against wheat mildew on wheat seedlings; assay type: in vivo; settings: aqueous dispersion containing 250 ppm active ingredient, assessed after 7 days
Protocol: Leaves of pot-grown wheat seedlings of the Fruhgold variety were sprayed with an aqueous liquor which contained 80% of active ingredient and 20% of emulsifier in dry matter and, 24 hours after the sprayed-on layer had dried, were dusted with spores of wheat mildew (Erysiphe graminis var. tritici). The test plants were then placed in a greenhouse at from 20° to 22° C. and from 75 to 80% relative humidity. The extent of mildew spread was assessed after 7 days.

Plasmopara viticola = assay: Activity against Plasmopara viticola on potted vines; assay type: in vivo; settings: aqueous dispersion containing 250 ppm active ingredient, infected 8 days after spraying
Protocol: Leaves of potted vines of the Muller Thurgau variety were sprayed with an aqueous liquor which contained 80% of active ingredient and 20% of emulsifier in dry matter. To assess the duration of action of the active ingredient, after the sprayed-on layer had dried the plants were placed in a greenhouse for 8 days. The leaves were then infected with a suspension of Plasmopara viticola zoospores. The vines were then placed first in a chamber saturated with water vapor at 24° C. for 48 hours and then in a greenhouse at from 20° to 30° C. for 5 days. After this, to speed up sporangiophore discharge, the plants were again placed in the humidity chamber for 16 hours. The extent of fungus attack was then assessed on the undersides of the leaves.

[4] = test system: mitochondrial respiration; assay: Inhibition of mitochondrial respiration (rate of reduction of cytochrome c in isolated mitochondria), phytopathogenic fungus; assay type: biochemical, Drechslera sorokiniana; settings: DMSO control
Text: as §3, §1, §2

Row | SMILES | % inhibition of respiration at 1.8 × 10^-5 mol/l test substance, Saccharomyces cerevisiae [1] [%] | % inhibition of respiration at 1.8 × 10^-5 mol/l test substance, Musca domestica [2] [%] | fungal attack, wheat mildew [3] [%] | fungal attack, Plasmopara viticola (Plasmopara viticola) [%] | % inhibition of respiration at 1.8 × 10^-5 mol/l test substance, Drechslera sorokiniana [4] [%]
1 | COC(=O)/C=C(/OC)c1ccccc1COc1ccccc1C [Compound 1a.2] | 88 | 21 | 15 | – | –
2 | COC(=O)/C=C(/OC)c1ccccc1COc1ccc(Oc2ccccc2)cc1 [Compound 1a.31] | – | – | – | 10 | –
3 | COC(=O)/C=C(/OC)c1ccccc1COc1ccc(C(C)=NOCC(C)C)cc1C [Compound 1a.60] | 97 | 93 | 15 | – | 99
4 | CON=C(C)c1cc(C)c(OCc2ccccc2/C(=C\C(=O)OC)OC)cc1C [Compound 1a.61] | 98 | 97 | 15 | 10 | –
5 | CON=Cc1cccc(OCc2ccccc2/C(=C\C(=O)OC)OC)c1 [Compound 1a.62] | 87 | 74 | – | 10 | –
6 | C=CCON=Cc1cccc(OCc2ccccc2/C(=C\C(=O)OC)OC)c1 [Compound 1a.63] | 93 | 85 | 15 | 10 | –
7 | COC(=O)/C=C(/OC)c1ccccc1COc1cccc(C=NOCc2ccccc2Cl)c1 [Compound 1a.64] | 94 | 93 | – | – | 98
8 | CC/C(=C/C(=O)OC)c1ccccc1COc1ccccc1C [Compound 1a.110] | – | 12 | – | 10 | –
9 | COC(=O)/C=C(/OC)c1ccccc1COc1nc(-c2ccccc2)sc1C [Compound 1a.182] | 98 | – | – | 10 | –
10 | COC(=O)/C=C(/OC)c1ccccc1/C=C/c1ccccc1[N+](=O)[O-] [Compound 1a.238] | 99 | 87 | – | 10 | 74
11 | COC(=O)/C=C(/OC)c1ccccc1/C=C\c1ccccc1[N+](=O)[O-] [Compound 1a.239] | 44 | 16 | 15 | – | –
12 | COC(=O)/C=C(/OC)c1ccccc1/C=C/c1ccccc1C(F)(F)F [Compound 1a.243] | 99 | 89 | – | – | 94
13 | COC(=O)/C=C(/OC)c1ccccc1/C=C/c1cccc(C(F)(F)F)c1 [Compound 1a.245] | 98 | 91 | 15 | – | –
14 | COC(=O)/C=C(/OC)c1ccccc1/C=C\c1cccc(C(F)(F)F)c1 [Compound 1a.246] | 84 | 81 | 15 | – | –
15 | COC(=O)/C=C(/OC)c1ccccc1/C=C/c1ccc(-c2ccccc2)cc1 [Compound 1a.268, methyl 2-[2-(4-phenylphenyl)-(E)-ethenyl]-(E)-β-methoxycinnamate] | 95 | 95 | – | – | 97
16 | COC(=O)/C=C(/OC)c1ccccc1/C=C\c1ccc(-c2ccccc2)cc1 [Compound 1a.269, methyl 2-[2-(4-phenylphenyl)-(Z)-ethenyl]-(E)-β-methoxycinnamate] | 96 | 76 | – | – | 81
17 | COC(=O)/C=C(/OC)c1ccccc1/C=C/c1ccc(Oc2ccccc2)cc1 [Compound 1a.273] | 95 | 95 | – | – | 96

Row | SMILES | % inhibition of respiration at 1.8 × 10^-5 mol/l test substance, Saccharomyces cerevisiae [1] [%] | % inhibition of respiration at 1.8 × 10^-5 mol/l test substance, Musca domestica [2] [%] | fungal attack, wheat mildew [3] [%] | fungal attack, Plasmopara viticola (Plasmopara viticola) [%] | % inhibition of respiration at 1.8 × 10^-5 mol/l test substance, Drechslera sorokiniana [4] [%]
18 | COC(=O)/C=C(/OC)c1ccccc1/C=C/c1ccco1 [Compound 1a.290] | 98 | 86 | 15 | – | –
19 | COC(=O)/C=C(/OC)c1ccccc1/C=C/c1ccoc1 [Compound 1a.292] | 87 | 61 | 15 | – | 79
20 | COC(=O)/C=C(/OC)c1ccccc1/C=C/c1cccs1 [Compound 1a.294] | 98 | 95 | 15 | – | –
21 | COC(=O)/C=C(/OC)c1ccccc1/C=C/c1cc(-c2ccc(Cl)cc2)no1 [Compound 1a.300] | 98 | 93 | – | – | –
22 | COC(=O)/C=C(/OC)c1ccccc1/C=C\c1coc(-c2ccc(Cl)cc2)n1 [Compound 1a.303] | 98 | 86 | – | – | –
23 | COC(=O)/C=C(/OC)c1ccccc1/C=C/c1ccn(-c2ccc(Cl)cc2)c1 [Compound 1a.304] | 97 | 96 | 15 | – | –
24 | COC(=O)/C=C(/OC)c1ccccc1/C=C\c1ccn(-c2ccc(Cl)cc2)c1 [Compound 1a.305] | 30 | 39 | – | – | –
25 | COC(=O)/C=C(/OC)c1ccccc1/C=C/c1csc(-c2ccccc2)n1 [Compound 1a.306] | 98 | 96 | – | – | –
26 | COC(=O)/C=C(/OC)c1ccccc1/C=C\c1csc(-c2ccccc2)n1 [Compound 1a.307] | 58 | 71 | – | – | –
27 | COC(=O)/C=C(/OC)c1ccccc1/C=C/c1nc(-c2ccc(F)cc2)no1 [Compound 1a.310] | 99 | – | – | 10 | –
28 | COC(=O)/C=C(/OC)c1ccccc1/C=C/c1csc(-c2ccc(C)cc2)n1 [Compound 1a.312] | 99 | – | – | 10 | –
29 | COC(=O)/C=C(/OC)c1ccccc1/C=C/c1cnn(-c2ccc(OC)cc2)c1 [Compound 1a.318] | 98 | – | – | 10 | –
30 | COC(=O)/C=C(/OC)c1ccccc1/C=C\c1cnn(-c2ccc(Cl)cc2)c1 [Compound 1a.321] | 19 | – | – | 10 | –
31 | COC(=O)/C=C(/OC)c1ccccc1/C=C\c1noc(-c2ccc(Cl)cc2)c1C [Compound 1a.323] | 99 | – | – | 10 | –
32 | COC(=O)/C=C(/OC)c1ccccc1/C=C/c1csc(-c2ccc(F)cc2)n1 [Compound 1a.394, methyl 2-{2-[2-(4-fluorophenyl)-4-thiazolyl]-(E)-ethenyl}-(E)-β-methoxycinnamate] | 96 | 99 | – | 10 | –
33 | COC(=O)/C=C(/OC)c1ccccc1/C=C/c1ccc(C(F)(F)F)cc1 [Compound 1a.519] | 97 | 89 | – | – | –
